US4963538A, “5-oxygenated HMG-CoA reductase inhibitors” (Merck & Co., Inc., priority 1989, dated 1990)

These compounds were tested against T1, HMG-CoA reductase (Rattus norvegicus, UniProt P51639) (assay: intrinsic HMG-CoA reductase inhibition, in vitro protocol of J. Med. Chem., 28, p. 347-358 (1985)). Conditions: compactin (mevastatin) assigned 100; IC50 of test compound compared with that of compactin determined simultaneously.
T1 sequence (P51639 1-887): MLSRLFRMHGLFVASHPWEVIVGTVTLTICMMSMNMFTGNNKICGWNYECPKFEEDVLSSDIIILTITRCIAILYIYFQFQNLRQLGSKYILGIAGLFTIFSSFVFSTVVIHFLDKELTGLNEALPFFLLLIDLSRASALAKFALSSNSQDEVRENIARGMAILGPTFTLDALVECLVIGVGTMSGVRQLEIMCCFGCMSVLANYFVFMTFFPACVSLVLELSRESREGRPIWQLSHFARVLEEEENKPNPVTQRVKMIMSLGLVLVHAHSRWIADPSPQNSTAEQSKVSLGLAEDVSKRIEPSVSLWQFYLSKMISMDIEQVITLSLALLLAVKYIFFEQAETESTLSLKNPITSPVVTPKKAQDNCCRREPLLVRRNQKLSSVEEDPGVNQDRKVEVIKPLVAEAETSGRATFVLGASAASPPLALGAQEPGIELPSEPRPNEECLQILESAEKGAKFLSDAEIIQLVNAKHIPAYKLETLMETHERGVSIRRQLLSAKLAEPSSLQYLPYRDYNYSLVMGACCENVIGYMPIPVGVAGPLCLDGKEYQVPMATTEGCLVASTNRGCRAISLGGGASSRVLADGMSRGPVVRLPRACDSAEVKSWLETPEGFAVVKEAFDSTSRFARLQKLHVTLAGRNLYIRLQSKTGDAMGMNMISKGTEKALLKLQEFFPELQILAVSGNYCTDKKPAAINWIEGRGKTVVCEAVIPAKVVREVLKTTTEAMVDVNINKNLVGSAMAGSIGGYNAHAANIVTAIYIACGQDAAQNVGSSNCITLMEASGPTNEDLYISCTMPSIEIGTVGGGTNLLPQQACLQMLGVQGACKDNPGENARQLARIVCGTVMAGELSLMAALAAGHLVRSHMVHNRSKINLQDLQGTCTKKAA
Format: biochemical
Method: The intrinsic HMG-CoA reductase inhibition activity of the claimed compounds is measured in the in vitro protocol published in J. Med. Chem., 28, p. 347-358 (1985).
For estimation of relative inhibitory potencies, compactin (i.e., mevastatin) was assigned a value of 100 and the IC50 value of the test compound was compared with that of compactin determined simultaneously in the published in vitro protocol.

| Relative Potency | SMILES |
| --- | --- |
| 11.1 | CCC(C)(C)C(=O)O[C@H]1C[C@H](C)[C@H](O)[C@@H]2CC[C@H](C)[C@H](CC[C@@H]3C[C@@H](O)CC(=O)O3)[C@H]21 [6(R)-[2-[8(S)-(2,2-dimethylbutyryloxy)-2(S)-methyl-5(S)-hydroxy-6(S)-methyl-1,2,3,4,4a-(R)-,6,7,8,8a(R)-decahydronaphthyl-1(S)]ethyl]-4(R)-hydroxy-3,4,5,6-tetrahydro-2H-pyran-2-one] |
| 125 | CCC(C)(C)C(=O)O[C@H]1C[C@@H](C)C(=O)[C@@H]2CC[C@H](C)[C@H](CC[C@@H]3C[C@@H](O)CC(=O)O3)[C@@H]12 [6(R)-[2-[8(S)-(2,2-dimethylbutyryloxy)-2(S)-methyl-5-oxo-6(R)-methyl-1,2,3,4,4a(R)-,6,7,8,8a(R)-nonanydronaphthyl-1(S)]ethyl]-4(R)-hydroxy-3,4,5,6-tetrahydro-2H-pyran-2-one] |
| 94 | CCC(C)(C)C(=O)O[C@H]1C[C@@H](C)[C@@H](OC(=O)N(Cc2ccccc2)Cc2ccccc2)[C@@H]2CC[C@H](C)[C@H](CC[C@@H]3C[C@@H](O)CC(=O)O3)[C@H]21 [6(R)-[2-[8(S)-(2,2-dimethylbutyryloxyl)-2(S)-methyl-5(R)-dibenzylaminocarbonyloxy-6(R)-methyl-1,2,3,4,4a(R)-,5,6,7,8,8a(R)-decahydronaphthyl-1(S)]ethyl]-4(R)-hydroxy-3,4,5,6-tetrahydro-2H-pyran-2-one] |
| 300 | CCC(C)(C)C(=O)O[C@H]1C[C@@H](C)[C@@H](OP(=O)(c2ccccc2)c2ccccc2)[C@@H]2CC[C@H](C)[C@H](CC[C@@H]3C[C@@H](O)CC(=O)O3)[C@H]21 [6(R)-[2-[8(S)-(2,2-dimethylbutyryloxy)-2(S)-methyl-5(R)-diphenylphosphinyloxy-6(R)-methyl-1,2,3,4,4a(R),5,6,7,8,8a(R)-decahydronaphthyl-1(S)]ethyl]-4(R)-hydroxy-3,4,5,6-tetrahydro-2H-pyran-2-one] |
| 360 | CCC(C)(C)C(=O)O[C@H]1C[C@@H](C)[C@@H](OC(=O)NCc2ccccc2)[C@@H]2CC[C@H](C)[C@H](CC[C@@H]3C[C@@H](O)CC(=O)O3)[C@H]21 [6(R)-[2-[8(S) (2,2-dimethylbutyryloxy)-2(S)methyl 5(R)-benzylaminocarbonyloxy-6(R)-methyl-1,2,3,4,4a(R)-,5,6,7,8,8a(R)-decahydronaphthyl-1(S)]ethyl]-4-(R)-hydroxy-3,4,5,6-tetrahydro-2H-pyran-2-one] |
| 300 | CCC(C)(C)C(=O)O[C@H]1C[C@@H](C)[C@@H](OCCc2ccccc2)[C@@H]2CC[C@H](C)[C@H](CC[C@@H]3C[C@@H](O)CC(=O)O3)[C@H]21 [6(R)-[2-[8(S)-(2,2-dimethylbutyryloxy)-2(S)-methyl-5(R)-(1-phenylethyl-2-oxy)-6(R)-methyl-1,2,3,4,4a(R)-,5,6,7,8, 8a(R)-decahydronaphthyl-1(S)]ethyl]-4(R)-hydroxy-3,4,5,6-tetrahydro-2H-pyran-2-one] |
| 99.6 | CCC(C)(C)C(=O)O[C@H]1C[C@H](C)[C@@H](O)[C@@H]2CC[C@H](C)[C@H](CC[C@@H]3C[C@@H](O)CC(=O)O3)[C@H]21 [6(R)-[2-[8(S)-(2,2-dimethylbutyryloxy)-2(S)-methyl-5(R)-hydroxy-6(S)-methyl-1,2,3,4,4a(R)-,6,7,8,8a(R)-decahydronaphthyl-1(S)]ethyl]-4(R)-hydroxy-3,4,5,6-tetrahydro-2H-pyran-2-one] |
| 50 | CCC(C)(C)C(=O)O[C@H]1C[C@@H](C)[C@@H](O)[C@@H]2CC[C@H](C)[C@H](CC[C@@H]3C[C@@H](O)CC(=O)O3)[C@H]21 [6(R)-[2-[8(S)-(2,2-dimethylbutyryloxy)-2(S)-methyl-5(R)-hydroxy-6(R)-methyl-1,2,3,4,4a(R),6,7,8,8a(R)-decahydronapththyl-1(S)]ethyl]-4(R)-hydroxy-3,4,5,6-tetrahydro-2H-pyran-2-one] |
| 100 | CCC(C)(C)C(=O)O[C@H]1C[C@@H](C)[C@@H](O)[C@@H]2C=C[C@H](C)[C@H](CC[C@@H]3C[C@@H](O)CC(=O)O3)[C@H]21 [6(R)-[2-[8(S)-(2,2-dimethylbutyryloxy)-2(S)-methyl-5(R)-hydroxy-6(R)-methyl-1,2,4a(R),5,6,7,8,8a(R)-octahydronaphthyl-1(S)]ethyl]-4(R)-hydroxy-3,4,5,6-tetrahydro-2H-pyran-2-one] |
